One assay addresses LPA1 receptor (Homo sapiens, UniProt Q92633). As to the kind of experiment: HA-Erk1 phosphorylation in HEK 293 T cells transfected with LPA1. Conditions: LPA1 transfected HEK 293 T; 0.01, 0.1, or 1 μM. The assay is classed as cell-based. More on the design: FLAG; expressed in transfected cells; host or cells: HEK 293 T cells. From the text: (§1) We have also tested kinase activation by the LPA3 receptor subtype using OMPT as a tool. We determined whether activation of the LPA3 receptor by OMPT can be linked to ERK activation (related to MAP kinase signaling pathway) in mammalian cells, HEK 293 T cells, by co-transfecting hemagglutinin (HA)-tagged Erk1 (HA-Erk1) with either a control vector or an expression vector having LPA1, LPA2, or LPA3. […] There is no phosphorylation of HA-Erk1 at lower concentration of LPA or OMPT in the absence of LPA receptors. […] Thus, the data confirmed that OMPT, an LPA derivative, is a selective agonist for LPA3 receptor subtype, capable of inducing MAPK activation.

The target in assay [1] is T1, LPA3 receptor (Homo sapiens, UniProt Q9UBY5).
T1 construct: expressed in transfected cells; host or cells: HEK293 T cells (crude microsomal membranes)
Briefly: GTP[γ-35S] binding assay, HEK293 T membranes, LPA3. The assay is classed as biochemical. As to conditions: HEK293 transfected with LPA3, FIG. 59C. As to the method:
(§2) OMPT also enhances GTP [γ-^35S] binding in the cell membrane of HEK293 T cells expressing LPA3. The procedures for these GTP [γ-^35S] binding assays involve co-transfection of HEK293 T cells with expression vectors encoding one of the receptors for LPA (LPA1, LPA2, or LPA3) or S1P (S1P3/Edg3) by calcium phosphate precipitation, together with plasmids encoding three G proteins (rat Gi2α, cow β1, and cow γ2). After about 48 hours, cells were harvested and crude microsomal membranes were prepared. Membranes containing about 5 μg of protein were incubated in 0.1 ml of GTP-binding buffer (50 mM Hepes, 100 mM NaCl, 10 mM MgCl2, pH7.5) having 5 μg of saponin, 0.1% fatty acid-free BSA, 10 μM GDP, 0.1 nM GTP[γ-^35S] (1200 Ci/mmole) together with indicated concentrations of LPA or OMPT for about 30 min at 30° C. Membranes were collected using a 96-well Brandel Cell Harvester (Gaithersburg, Md.), and bound radionuclide was determined using a Packard TopCount liquid scintillation counter.
T1 sequence (P04897 2-355 partner limits assumed, one chain of several): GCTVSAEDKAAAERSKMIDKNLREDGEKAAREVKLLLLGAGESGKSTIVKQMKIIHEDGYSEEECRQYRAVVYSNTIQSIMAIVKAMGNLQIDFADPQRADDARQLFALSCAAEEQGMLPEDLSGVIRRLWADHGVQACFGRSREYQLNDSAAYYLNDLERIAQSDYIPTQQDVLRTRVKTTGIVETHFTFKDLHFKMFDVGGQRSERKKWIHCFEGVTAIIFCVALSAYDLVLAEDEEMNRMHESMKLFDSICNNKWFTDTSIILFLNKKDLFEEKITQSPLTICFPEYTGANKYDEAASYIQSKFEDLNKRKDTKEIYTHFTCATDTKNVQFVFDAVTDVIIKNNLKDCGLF
T1 sequence (P62871 2-340 partner limits assumed, one chain of several): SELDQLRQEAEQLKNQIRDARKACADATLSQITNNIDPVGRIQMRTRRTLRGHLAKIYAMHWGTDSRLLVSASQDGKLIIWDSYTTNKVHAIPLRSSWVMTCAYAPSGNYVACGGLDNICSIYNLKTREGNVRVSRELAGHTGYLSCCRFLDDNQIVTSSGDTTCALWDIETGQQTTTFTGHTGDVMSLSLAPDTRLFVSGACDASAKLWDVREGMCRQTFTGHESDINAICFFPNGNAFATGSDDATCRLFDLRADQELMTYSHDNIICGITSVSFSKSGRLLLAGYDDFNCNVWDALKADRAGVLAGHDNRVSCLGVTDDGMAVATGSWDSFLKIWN
T1 sequence (P63212 2-68 partner limits assumed, one chain of several): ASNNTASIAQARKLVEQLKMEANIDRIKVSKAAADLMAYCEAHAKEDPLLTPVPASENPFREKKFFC
(GTPγS resists hydrolysis and so accumulates on activated G proteins.)

In assay [2] the target is T2, LPA3 receptor (Homo sapiens, UniProt Q9UBY5).
T2 sequence (Q9UBY5 1-353): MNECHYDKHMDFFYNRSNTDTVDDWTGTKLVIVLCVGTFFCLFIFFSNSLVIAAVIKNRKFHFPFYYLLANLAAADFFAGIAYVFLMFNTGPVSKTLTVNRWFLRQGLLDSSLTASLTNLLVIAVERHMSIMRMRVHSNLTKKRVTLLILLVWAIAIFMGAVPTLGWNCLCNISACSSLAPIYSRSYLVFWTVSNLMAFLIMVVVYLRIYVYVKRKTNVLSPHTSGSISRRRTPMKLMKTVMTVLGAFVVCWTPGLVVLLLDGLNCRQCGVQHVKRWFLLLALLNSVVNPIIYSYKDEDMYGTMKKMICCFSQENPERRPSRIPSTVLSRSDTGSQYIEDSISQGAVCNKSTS
Briefly: calcium mobilization in Sf9 insect cells expressing LPA3. The assay is classed as cell-based. Further details: expressed in transfected cells; host or cells: Sf9 insect cells.

For assay [3], the target named is T3, LPA2 receptor (Homo sapiens, UniProt Q9HBW0). Briefly: HA-Erk1 phosphorylation in HEK 293 T cells transfected with LPA2. The assay is classed as cell-based. More on the design: expressed in transfected cells. Conditions: LPA2 transfected HEK 293 T; 0.01, 0.1, or 1 μM.
Description: as §1

The test system of a further assay is PKA. As to the kind of experiment: PKA activation in PC-3 cells. The assay is classed as cell-based, human.
A further assay has as its system ERK1/2. As to the kind of experiment: ERK1/2 (p42/p44-MAPK) phosphorylation immunoblot in prostate cancer cells. Conditions: PC-3 and DU145 cells. The assay is classed as cell-based, human. How it is done: (§3) The cells were then lysed in SDA sample buffer or ice-cold X-100 lysis buffer (1% Triton X-100, 50 mM HEPES [pH7.4], 150 mM NaCl, 1.5 mM MgCl2, 1 mM EGTA, 10% glycerol, 100 mM NaF, 10 mM Na pyrophosphate, and 1 mM aprotinin). Total cellular protein was resolved by SDS/PAGE, transferred to immobilon [poly (vinylidene difluoride)], and immunoblotted with antibodies following the protocols provided by manufactures. Immunocomplexes were visualized with an enhanced chemiluminescence detection kit (Amersham Pharmacia) using horseradish peroxidase-conjugated secondary antibodies (Bio-Rad).
Background: In western blotting, separated proteins are transferred to a membrane and probed.

In another assay the test system is PC-3 cells. As to the kind of experiment: membrane ruffling and cell migration in PC-3 cells. The assay is classed as cell-based, human.
A further assay deals with AKT. As to the kind of experiment: AKT phosphorylation immunoblot in prostate cancer cells. Conditions: PC-3 and DU145 cells. The assay is classed as cell-based, human. As to the method:
as §3

Assay [4] concerns the target T3, LPA2 receptor. Briefly: GTP[γ-35S] binding assay, HEK293 T membranes, LPA2. As to conditions: HEK293 transfected with LPA2, FIG. 59B. More on the design: expressed in transfected cells; host or cells: HEK293 T cells (crude microsomal membranes). The assay is classed as biochemical. How it is done:
as §2

In assay [5] the test system is chimera receptor, LPA1/LPA2. As to the kind of experiment: calcium mobilization in Sf9 cells expressing LPA1/LPA2 chimera receptor. Conditions: FIG. 58C. The assay is classed as cell-based. (Calcium assays in cells follow changes in intracellular calcium, usually with a dye or a luminescent sensor.)
Assay [6] concerns the target T3, LPA2 receptor. As to the kind of experiment: calcium mobilization in Sf9 insect cells expressing LPA2. The assay is classed as cell-based. More on the design: expressed in transfected cells; host or cells: Sf9 insect cells.
In assay [7] the test system is vasodilator-stimulated protein (VASP). As to the kind of experiment: VASP phosphorylation in PC-3 cells. The assay is classed as cell-based, human. How it is done: as §3
To determine the mechanisms regulating LPA-induced cell migration, actin filament binding proteins that link receptor signaling to lamellipodia formation were evaluated.

In assay [8] the target is T2, LPA3 receptor. As to the kind of experiment: HA-Erk1 phosphorylation in HEK 293 T cells transfected with LPA3. Conditions: LPA3 transfected HEK 293 T; 0.01, 0.1, or 1 μM. More on the design: expressed in transfected cells. The assay is classed as cell-based.
Description: as §1

T3 sequence (Q9HBW0 whole entry): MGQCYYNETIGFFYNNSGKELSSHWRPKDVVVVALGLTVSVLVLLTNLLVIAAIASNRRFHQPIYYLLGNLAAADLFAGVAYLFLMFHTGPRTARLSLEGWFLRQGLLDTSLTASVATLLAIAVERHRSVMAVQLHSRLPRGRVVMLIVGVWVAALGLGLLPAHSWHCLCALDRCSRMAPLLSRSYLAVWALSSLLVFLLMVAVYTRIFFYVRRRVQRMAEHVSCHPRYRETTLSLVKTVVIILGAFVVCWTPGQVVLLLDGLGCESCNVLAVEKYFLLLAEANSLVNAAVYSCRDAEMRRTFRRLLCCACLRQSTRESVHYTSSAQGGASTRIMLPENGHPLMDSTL
Sequence of LPA1 receptor (Q92633 whole entry): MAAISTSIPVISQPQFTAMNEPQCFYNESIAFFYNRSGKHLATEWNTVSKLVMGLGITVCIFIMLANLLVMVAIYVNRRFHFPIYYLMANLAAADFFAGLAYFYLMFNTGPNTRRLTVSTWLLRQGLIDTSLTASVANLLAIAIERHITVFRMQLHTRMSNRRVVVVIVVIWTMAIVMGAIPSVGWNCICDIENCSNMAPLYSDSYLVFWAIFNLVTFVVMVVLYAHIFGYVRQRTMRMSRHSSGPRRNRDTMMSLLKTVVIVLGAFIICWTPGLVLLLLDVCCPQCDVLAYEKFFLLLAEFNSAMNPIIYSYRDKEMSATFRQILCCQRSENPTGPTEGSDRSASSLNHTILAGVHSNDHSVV

As for `CCCCCCCC/C=C\CCCCCCCC(=O)OCC(COP(O)(O)=S)OC` (racemic) [OMPT, 1-oleoyl-sn2-O-methyl-rac-glycero-3-phosphothionate], the HA-Erk1 phosphorylation entry on LPA1 receptor was “did not increase HA-Erk1 phosphorylation”; on LPA2 receptor [3], “did not increase HA-Erk1 phosphorylation”; on LPA3 receptor [8], “stimulates Erk1 phosphorylation at all concentrations tested”. The “activation in GTP[γ-35S] binding assay” value on LPA3 receptor [1] is recorded as “activates”; on LPA2 receptor [4] it was “does not activate”. The calcium mobilization result on LPA3 receptor [2] is “efficiently activates calcium mobilization”; in [5] it was “did not induce calcium mobilization”; at LPA2 receptor [6] (Sf9 cells expressing LPA2, FIG. 58B), “did not induce calcium mobilization”. In addition, the EC50 was 69 nM at LPA3 receptor [2] (read-out: EC50 of increase in intracellular calcium concentration) and over 10 µM on LPA2 receptor [6] (Sf9 cells expressing LPA2, read-out: EC50 of increase in intracellular calcium concentration). In addition, in the assay on PKA, the “activation of PKA” value was “does not”. For the same compound, the “activation of p42/p44-MAPK” value in the assay on ERK1/2 was “efficiently activates”. The “stimulation of membrane ruffling and cell migration” value in the assay with PC-3 cells is reported as “induces neither morphology changes nor migration”. Further, in the assay on AKT, the “activation of AKT” value is given as “efficiently activates”. In addition, the “induction of VASP phosphorylation at Ser157 PKA site” value in [7] is on record as “Neither OMPT nor EGF increased phosphorylation of VASP”.

Source of the values: patent publication US20080071116A1, “Modulators of Lysophosphatidic Acid (Lpa) Signaling and the Use Thereof” (THE BOARD OF REGENTS OF THE UNIVERSITY OF TEXAS SYSTEM, priority 2004, published 2008).
